EP4745135A1 (Gluetacs Therapeutics (Shanghai) Co., Ltd., priority 2023, dated 2025)

Legend:
IKZF2 = target: T1, IKZF2 (Homo sapiens, UniProt Q96SW2+Q9UKS7); assay: Western blot, degradation of substrate protein in hPBMCs; format: cell-based
T1 construct: effects of the compounds of the present disclosure on the expression of target proteins in cells; endogenous in cells; host or cells: human PBMCs (Milecell Biotechnologies)

IKZF1 = target: T2, IKZF1 (Homo sapiens, UniProt Q13422+Q96SW2); assay: as above; format: cell-based
T2 construct: effects of the compounds of the present disclosure on the expression of target proteins in cells; endogenous in cells; host or cells: human PBMCs (Milecell Biotechnologies)

WEE1 = target: T3, WEE1 (Homo sapiens, UniProt P30291+Q96SW2); assay: as above; format: cell-based
T3 construct: effects of the compounds of the present disclosure on the expression of target proteins in cells; endogenous in cells; host or cells: human PBMCs (Milecell Biotechnologies)

IKZF3 = target: T4, IKZF3 (Homo sapiens, UniProt Q96SW2+Q9UKT9); assay: as above; format: cell-based
T4 construct: effects of the compounds of the present disclosure on the expression of target proteins in cells; endogenous in cells; host or cells: human PBMCs (Milecell Biotechnologies)

CK1α = target: T5, CK1α (Homo sapiens, UniProt P48729+Q96SW2); assay: as above; format: cell-based
T5 construct: effects of the compounds of the present disclosure on the expression of target proteins in cells; endogenous in cells; host or cells: human PBMCs (Milecell Biotechnologies)

[1] = test system: Human myeloid monocytic leukemia cell (MV-4-11); assay: Tumor cell proliferation inhibition (CellTiter-Meiluncell luminescent cell viability assay); settings: MV4-11, 96 h; for inhibition at 0.01 µM: read-out: Inhibition Rate at 10 nM (%); for inhibition at 0.5 µM: read-out: Inhibition Rate at 500 nM (%)
GSPT1 = assay: Western blot, degradation of substrate protein in hPBMCs; format: cell-based, Human
[2] = target: T6, human Cereblon WT GST-tagged protein (Homo sapiens, UniProt Q96SW2); assay: CRBN-binding affinity, HTRF (CEREBLON BINDING kit); settings: for inhibition at 0.5 µM: read-out: Inhibition Rate at 0.5 µM (%); for inhibition at 2 µM: read-out: Inhibition Rate at 2 µM (%)
T6 construct: purchased CISBIO 64BDCRBNPEH

[3] = Western blot, 24 hours of compound treatment, compounds tested at 50 nM and 500 nM (concentration for the table not stated)
[4] = 24 hours treatment, compounds at 50 nM and 500 nM (concentration behind the class not stated)

T4 sequence (Q9UKT9 whole entry): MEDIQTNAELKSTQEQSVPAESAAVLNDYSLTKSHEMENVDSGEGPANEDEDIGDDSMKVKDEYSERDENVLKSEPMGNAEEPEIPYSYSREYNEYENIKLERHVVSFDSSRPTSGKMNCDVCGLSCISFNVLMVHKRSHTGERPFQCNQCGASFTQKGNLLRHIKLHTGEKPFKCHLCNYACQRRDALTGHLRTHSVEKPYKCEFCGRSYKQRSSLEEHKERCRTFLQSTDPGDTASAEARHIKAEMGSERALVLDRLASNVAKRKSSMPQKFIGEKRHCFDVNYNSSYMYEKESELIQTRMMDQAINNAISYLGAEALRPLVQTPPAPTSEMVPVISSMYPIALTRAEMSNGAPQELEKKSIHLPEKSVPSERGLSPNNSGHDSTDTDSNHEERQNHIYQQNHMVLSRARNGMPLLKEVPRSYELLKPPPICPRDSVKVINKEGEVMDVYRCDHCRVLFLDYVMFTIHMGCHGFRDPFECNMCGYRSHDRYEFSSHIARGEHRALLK
T4 sequence (Q96SW2 whole entry): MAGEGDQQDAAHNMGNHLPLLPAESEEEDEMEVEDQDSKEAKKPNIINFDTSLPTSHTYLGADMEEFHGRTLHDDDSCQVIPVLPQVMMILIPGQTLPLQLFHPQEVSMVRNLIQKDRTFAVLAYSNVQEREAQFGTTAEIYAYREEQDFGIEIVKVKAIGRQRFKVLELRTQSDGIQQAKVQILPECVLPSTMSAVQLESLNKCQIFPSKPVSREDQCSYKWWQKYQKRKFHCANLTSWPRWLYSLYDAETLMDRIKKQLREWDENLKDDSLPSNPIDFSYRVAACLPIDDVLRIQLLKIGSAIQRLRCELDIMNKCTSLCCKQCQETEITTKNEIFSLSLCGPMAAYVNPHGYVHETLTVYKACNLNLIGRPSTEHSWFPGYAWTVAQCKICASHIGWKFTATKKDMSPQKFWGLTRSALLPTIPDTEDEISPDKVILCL
T4 sequence (Q16531 whole entry partner): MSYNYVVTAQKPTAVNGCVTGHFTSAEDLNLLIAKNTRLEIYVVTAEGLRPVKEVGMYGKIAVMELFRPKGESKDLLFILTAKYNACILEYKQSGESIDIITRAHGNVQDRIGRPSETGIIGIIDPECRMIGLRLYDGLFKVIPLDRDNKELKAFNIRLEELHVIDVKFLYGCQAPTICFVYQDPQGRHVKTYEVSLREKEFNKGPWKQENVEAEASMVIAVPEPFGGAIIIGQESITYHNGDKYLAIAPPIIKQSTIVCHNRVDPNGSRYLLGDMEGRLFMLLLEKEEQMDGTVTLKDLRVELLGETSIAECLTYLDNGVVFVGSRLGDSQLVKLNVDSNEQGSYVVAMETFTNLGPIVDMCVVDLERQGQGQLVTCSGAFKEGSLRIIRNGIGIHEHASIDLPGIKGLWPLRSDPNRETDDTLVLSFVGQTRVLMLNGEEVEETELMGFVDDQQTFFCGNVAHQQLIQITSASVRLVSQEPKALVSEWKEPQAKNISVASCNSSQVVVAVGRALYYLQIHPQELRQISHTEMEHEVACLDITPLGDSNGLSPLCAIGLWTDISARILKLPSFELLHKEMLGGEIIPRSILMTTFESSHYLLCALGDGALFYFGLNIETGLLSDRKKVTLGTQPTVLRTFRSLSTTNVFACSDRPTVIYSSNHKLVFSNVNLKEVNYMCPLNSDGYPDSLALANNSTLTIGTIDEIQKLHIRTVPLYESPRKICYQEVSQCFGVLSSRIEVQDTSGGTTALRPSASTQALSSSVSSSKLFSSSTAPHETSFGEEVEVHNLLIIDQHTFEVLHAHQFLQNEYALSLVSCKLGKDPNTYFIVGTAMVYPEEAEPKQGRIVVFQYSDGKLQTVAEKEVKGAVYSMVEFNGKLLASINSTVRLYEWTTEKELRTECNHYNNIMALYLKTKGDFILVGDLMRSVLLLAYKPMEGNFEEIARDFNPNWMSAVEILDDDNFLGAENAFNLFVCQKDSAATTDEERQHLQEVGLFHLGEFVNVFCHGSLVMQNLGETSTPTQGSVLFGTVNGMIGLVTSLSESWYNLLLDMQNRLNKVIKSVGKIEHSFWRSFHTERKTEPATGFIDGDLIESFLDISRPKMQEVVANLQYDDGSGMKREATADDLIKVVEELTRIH
T2 sequence (Q13422 whole entry): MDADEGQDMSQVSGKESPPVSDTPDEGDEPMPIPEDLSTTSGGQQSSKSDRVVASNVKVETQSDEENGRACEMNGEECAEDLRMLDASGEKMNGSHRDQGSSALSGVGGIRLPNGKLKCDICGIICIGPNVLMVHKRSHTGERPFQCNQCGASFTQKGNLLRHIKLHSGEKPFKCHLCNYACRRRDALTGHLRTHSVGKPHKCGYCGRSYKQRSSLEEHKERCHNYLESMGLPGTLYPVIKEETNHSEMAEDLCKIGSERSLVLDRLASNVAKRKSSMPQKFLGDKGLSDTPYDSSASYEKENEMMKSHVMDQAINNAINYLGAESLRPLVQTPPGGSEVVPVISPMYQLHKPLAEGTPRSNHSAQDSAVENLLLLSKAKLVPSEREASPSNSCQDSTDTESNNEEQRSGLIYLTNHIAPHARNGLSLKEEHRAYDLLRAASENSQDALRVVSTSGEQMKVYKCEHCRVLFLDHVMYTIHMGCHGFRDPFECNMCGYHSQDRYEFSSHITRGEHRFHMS
T2 sequence (Q96SW2 whole entry): as the sequence (Q96SW2 whole entry) above
T2 sequence (Q16531 whole entry partner): as the sequence (Q16531 whole entry partner) above
T5 sequence (P48729 whole entry): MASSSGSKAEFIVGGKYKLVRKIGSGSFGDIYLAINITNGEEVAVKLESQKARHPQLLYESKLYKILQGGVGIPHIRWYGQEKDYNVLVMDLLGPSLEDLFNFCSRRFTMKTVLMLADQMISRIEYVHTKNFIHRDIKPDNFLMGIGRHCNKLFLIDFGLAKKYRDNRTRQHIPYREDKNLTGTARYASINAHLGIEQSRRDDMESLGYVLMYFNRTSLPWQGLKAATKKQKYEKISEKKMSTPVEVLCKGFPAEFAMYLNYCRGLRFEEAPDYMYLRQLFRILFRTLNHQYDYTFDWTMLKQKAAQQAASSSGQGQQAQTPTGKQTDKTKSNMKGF
T5 sequence (Q96SW2 whole entry): as the sequence (Q96SW2 whole entry) above
T5 sequence (Q16531 whole entry partner): as the sequence (Q16531 whole entry partner) above
T1 sequence (Q9UKS7 whole entry): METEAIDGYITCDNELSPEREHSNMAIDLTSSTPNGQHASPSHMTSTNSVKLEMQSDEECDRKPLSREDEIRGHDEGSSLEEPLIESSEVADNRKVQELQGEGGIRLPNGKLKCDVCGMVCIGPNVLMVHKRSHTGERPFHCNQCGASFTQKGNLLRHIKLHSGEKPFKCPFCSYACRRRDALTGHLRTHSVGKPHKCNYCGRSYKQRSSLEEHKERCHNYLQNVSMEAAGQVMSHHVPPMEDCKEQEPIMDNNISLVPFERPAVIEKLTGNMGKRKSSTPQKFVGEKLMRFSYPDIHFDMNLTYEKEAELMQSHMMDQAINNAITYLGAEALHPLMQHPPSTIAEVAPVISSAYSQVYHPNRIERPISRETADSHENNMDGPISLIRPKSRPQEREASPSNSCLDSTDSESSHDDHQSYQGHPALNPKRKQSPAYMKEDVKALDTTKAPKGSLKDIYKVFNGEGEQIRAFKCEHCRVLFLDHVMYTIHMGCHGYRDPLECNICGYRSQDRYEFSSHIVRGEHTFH
T1 sequence (Q96SW2 whole entry): as the sequence (Q96SW2 whole entry) above
T1 sequence (Q16531 whole entry partner): as the sequence (Q16531 whole entry partner) above
T3 sequence (P30291 whole entry): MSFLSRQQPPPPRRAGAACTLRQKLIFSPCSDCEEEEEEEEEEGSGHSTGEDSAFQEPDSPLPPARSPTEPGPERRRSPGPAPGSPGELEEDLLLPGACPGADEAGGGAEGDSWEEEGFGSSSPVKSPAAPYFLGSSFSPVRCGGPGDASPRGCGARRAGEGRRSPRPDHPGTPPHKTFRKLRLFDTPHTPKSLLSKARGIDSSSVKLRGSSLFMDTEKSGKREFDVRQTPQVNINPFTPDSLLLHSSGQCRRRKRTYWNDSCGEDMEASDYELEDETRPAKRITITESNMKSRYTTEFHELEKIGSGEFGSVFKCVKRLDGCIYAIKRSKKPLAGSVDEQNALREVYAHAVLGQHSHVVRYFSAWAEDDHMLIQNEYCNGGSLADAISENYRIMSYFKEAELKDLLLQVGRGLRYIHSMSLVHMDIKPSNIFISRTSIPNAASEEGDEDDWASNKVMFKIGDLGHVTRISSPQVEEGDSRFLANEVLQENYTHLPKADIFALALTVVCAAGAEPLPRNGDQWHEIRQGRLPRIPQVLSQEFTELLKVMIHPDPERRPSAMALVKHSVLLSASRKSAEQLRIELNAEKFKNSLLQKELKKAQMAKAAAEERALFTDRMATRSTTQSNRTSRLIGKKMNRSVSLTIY
T3 sequence (Q96SW2 whole entry): as the sequence (Q96SW2 whole entry) above
T3 sequence (Q16531 whole entry partner): as the sequence (Q16531 whole entry partner) above
T6 sequence (Q96SW2 whole entry): as the sequence (Q96SW2 whole entry) above

| SMILES | IKZF2 substrate protein remaining % (IKZF2; [3]) | IKZF 1 substrate protein remaining % (IKZF1; [3]) | Wee1 substrate protein remaining % (WEE1; [3]) | IKZF3 substrate protein remaining % (IKZF3; [3]) | CK1α substrate protein remaining % (CK1α; [3]) | inhibition at 0.01 µM [1] [%] | inhibition at 0.5 µM [1] [%] | GSPT1 substrate protein remaining % (GSPT1; [3]) | inhibition at 0.5 µM [2] [%] | inhibition at 2 µM [2] [%] | IKZF2 substrate protein remaining % (IKZF2; [4]) | IKZF 1 substrate protein remaining % (IKZF1; [4]) | Wee1 substrate protein remaining % (WEE1; [4]) | IKZF3 substrate protein remaining % (IKZF3; [4]) | CK1α substrate protein remaining % (CK1α; [4]) | GSPT1 substrate protein remaining % (GSPT1; [4]) |
| --- | --- | --- | --- | --- | --- | --- | --- | --- | --- | --- | --- | --- | --- | --- | --- | --- |
| O=C1CCC(N2Cc3c(CN4CCN(c5ccc(C(F)(F)F)cc5)CC4)cccc3C2=S)C(=O)N1 (stereo not drawn) [GT-08262, 3-(1-thioxo-4-((4-(4-(trifluoromethyl)phenyl)piperazin-1-yl)methyl)isoindolin-2-yl)piperidine-2,6-dione] | B (80%< substrate protein remaining %≤ 100%) | B (80%< substrate protein remaining %≤ 100%) | A (0% ≤ substrate protein remaining % ≤ 80%) | B (80%< substrate protein remaining %≤ 100%) | A (0% ≤ substrate protein remaining % ≤ 80%) | 25 to 30 | 40 to 60 | A (0% ≤ substrate protein remaining % ≤ 80%) | 30 to 40 | 60 to 80 |  |  |  |  |  |  |
| O=C1CCC(N2Cc3c(CN4CCC(c5ccco5)CC4)cccc3C2=S)C(=O)N1 (stereo not drawn) [GT-08310, 3-(4-((4-(furan-2-yl)piperidin-1-yl)methyl)-1-thioxoisoindolin-2-yl)piperidine-2,6-dione] |  |  |  |  |  | 40 to 60 | 60 to 80 |  | 30 to 40 | 60 to 80 | B (80%< substrate protein remaining %≤ 100%) | B (80%< substrate protein remaining %≤ 100%) | A (0% ≤ substrate protein remaining % ≤ 80%) | B (80%< substrate protein remaining %≤ 100%) | B (80%< substrate protein remaining %≤ 100%) | B (80%< substrate protein remaining %≤ 100%) |
| Cc1ccsc1C1CCN(Cc2cccc3c2CN(C2CCC(=O)NC2=O)C3=S)CC1 (stereo not drawn) [GT-08314, 3-(4-((4-(3-methylthiophen-2-yl)piperidin-1-yl)methyl)-1-thioxoisoindolin-2-yl)piperidine-2,6-dione] |  |  |  |  |  | 40 to 60 | 60 to 80 |  | 40 to 53 | 60 to 80 | B (80%< substrate protein remaining %≤ 100%) | B (80%< substrate protein remaining %≤ 100%) | A (0% ≤ substrate protein remaining % ≤ 80%) | B (80%< substrate protein remaining %≤ 100%) | B (80%< substrate protein remaining %≤ 100%) | B (80%< substrate protein remaining %≤ 100%) |
| Cc1cc(C2CCN(Cc3cccc4c3CN(C3CCC(=O)NC3=O)C4=S)CC2)cs1 (stereo not drawn) [GT-08316, 3-(4-((4-(5-methylthiophen-3-yl)piperidin-1-yl)methyl)-1-thioxoisoindolin-2-yl)piperidine-2,6-dione] |  |  |  |  |  | 18 to 25 | 40 to 60 |  | 40 to 53 | 60 to 80 | B (80%< substrate protein remaining %≤ 100%) | B (80%< substrate protein remaining %≤ 100%) | A (0% ≤ substrate protein remaining % ≤ 80%) | B (80%< substrate protein remaining %≤ 100%) | B (80%< substrate protein remaining %≤ 100%) | B (80%< substrate protein remaining %≤ 100%) |
| O=C1CCC(N2Cc3c(CN4CCC(c5c[nH]c6cc(F)ccc56)CC4)cccc3C2=S)C(=O)N1 (stereo not drawn) [GT-08492, 3-(4-((4-(6-fluoro-1H-indol-3-yl)piperidin-1-yl)methyl)-1-thioxoisoindolin-2-yl)piperidine-2,6-dione] | B (80%< substrate protein remaining %≤ 100%) | B (80%< substrate protein remaining %≤ 100%) | A (0% ≤ substrate protein remaining % ≤ 80%) | B (80%< substrate protein remaining %≤ 100%) | B (80%< substrate protein remaining %≤ 100%) | 30 to 40 | 40 to 60 | B (80%< substrate protein remaining %≤ 100%) | 60 to 80 | 80 to 100 |  |  |  |  |  |  |
| O=C1CCC(N2Cc3c(CN4CCN(c5ccc(Cl)cc5Cl)CC4)cccc3C2=S)C(=O)N1 (stereo not drawn) [GT-08500, 3-(4-((4-(2,4-dichlorophenyl)piperazin-1-yl)methyl)-1-thioxoisoindolin-2-yl)piperidine-2,6-dione] | B (80%< substrate protein remaining %≤ 100%) | B (80%< substrate protein remaining %≤ 100%) | A (0% ≤ substrate protein remaining % ≤ 80%) | B (80%< substrate protein remaining %≤ 100%) | B (80%< substrate protein remaining %≤ 100%) | 30 to 40 | 40 to 60 | A (0% ≤ substrate protein remaining % ≤ 80%) | 40 to 53 | 60 to 80 |  |  |  |  |  |  |
| O=C1CCC(N2Cc3c(CN4CCN(c5ncnc6ccsc56)CC4)cccc3C2=S)C(=O)N1 (stereo not drawn) [GT-08970, 3-(4-((4-(thieno[3,2-d]pyrimidin-4-yl)piperazin-1-yl)methyl)-1-thioxoisoindolin-2-yl)piperidine-2,6-dione] |  |  |  |  |  | 18 to 25 | 40 to 60 |  | 60 to 80 | 80 to 100 | B (80%< substrate protein remaining %≤ 100%) | B (80%< substrate protein remaining %≤ 100%) | A (0% ≤ substrate protein remaining % ≤ 80%) | B (80%< substrate protein remaining %≤ 100%) | B (80%< substrate protein remaining %≤ 100%) | B (80%< substrate protein remaining %≤ 100%) |
| Cc1cccc(N2CCN(Cc3ccc4c(c3)CN(C3CCC(=O)NC3=O)C4=S)CC2)n1 (stereo not drawn) [GT-09214, 3-(5-((4-(6-methylpyridin-2-yl)piperazin-1-yl)methyl)-1-thioxoisoindolin-2-yl)piperidine-2,6-dione] | B (80%< substrate protein remaining %≤ 100%) | B (80%< substrate protein remaining %≤ 100%) | B (80%< substrate protein remaining %≤ 100%) | B (80%< substrate protein remaining %≤ 100%) | B (80%< substrate protein remaining %≤ 100%) | 10 to 18 | 40 to 60 | A (0% ≤ substrate protein remaining % ≤ 80%) | 60 to 80 | 80 to 100 |  |  |  |  |  |  |
| O=C1CCC(N2Cc3cc(CN4CCN(c5ncccc5F)CC4)ccc3C2=S)C(=O)N1 (stereo not drawn) [GT-09220, 3-(5-((4-(3-fluoropyridin-2-yl)piperazin-1-yl)methyl)-1-thioxoisoindolin-2-yl)piperidine-2,6-dione] | A (0% ≤ substrate protein remaining % ≤ 80%) | A (0% ≤ substrate protein remaining % ≤ 80%) | A (0% ≤ substrate protein remaining % ≤ 80%) | B (80%< substrate protein remaining %≤ 100%) | B (80%< substrate protein remaining %≤ 100%) | 30 to 40 | 40 to 60 | B (80%< substrate protein remaining %≤ 100%) | 60 to 80 | 80 to 100 |  |  |  |  |  |  |
